Laboratory results published in ChEMBL document CHEMBL4043166, “Triazole tethered isatin-coumarin based molecular hybrids as novel antitubulin agents: Design, synthesis, biological investigation and docking studies” (Bioorg Med Chem Lett, 2017).
Calls of active or inactive are those of the source. No cut-off for these calls is given here.

How the values were obtained:
HCT-116 [1] = assay: Cytotoxicity against human HCT116 cells assessed as growth inhibition at 50 uM after 48 hrs by SRB assay relative to control; format: functional; settings: HCT-116, 48 h, read-out: GI
COLO 205 [2] = assay: Cytotoxicity against human COLO205 cells assessed as growth inhibition at 50 uM after 48 hrs by SRB assay relative to control; format: functional; settings: COLO 205, 48 h, read-out: GI
THP-1 [3] = assay: Cytotoxicity against human THP1 cells assessed as growth inhibition at 50 uM after 48 hrs by SRB assay relative to control; format: functional; settings: THP-1, 48 h, read-out: GI
PC-3 = assay: Cytotoxicity against human PC3 cells assessed as growth inhibition at 50 uM after 48 hrs by SRB assay relative to control; format: functional; settings: PC-3, 48 h, read-out: GI
THP-1 [4] = assay: Cytotoxicity against human THP1 cells assessed as cell growth inhibition after 48 hrs by SRB assay; format: functional, cell-based; settings: THP-1, 48 h
COLO 205 [5] = assay: Cytotoxicity against human COLO205 cells assessed as cell growth inhibition after 48 hrs by SRB assay; format: functional, cell-based; settings: COLO 205, 48 h
HCT-116 [6] = assay: Cytotoxicity against human HCT116 cells assessed as cell growth inhibition after 48 hrs by SRB assay; format: functional, cell-based; settings: HCT-116, 48 h
[7] = Inhibition of tubulin (unknown origin) polymerization; set-up: species or system Homo sapiens
Homo sapiens [8] = species: Homo sapiens; assay: Inhibition of tubulin polymerization in human THP1 cells assessed as disrupted microtubule formation at 5 uM after 48 hrs by confocal microscopic analysis; format: cell-based
Homo sapiens [9] = species: Homo sapiens; assay: Inhibition of tubulin polymerization in human THP1 cells assessed as disrupted microtubule formation at 1 uM after 48 hrs by confocal microscopic analysis; format: cell-based

Row | IC50 [7] | SMILES | inhibition of growth at 50 µM (HCT-116 [1]) | inhibition of growth at 50 µM (COLO 205 [2]) | inhibition of growth at 50 µM (THP-1 [3]) | inhibition of growth at 50 µM (PC-3) | IC50 (THP-1 [4]) | IC50 (COLO 205 [5]) | IC50 (HCT-116 [6]) | inhibition (Homo sapiens [8]) | inhibition (Homo sapiens [9])
1 | – | O=C1C(=O)N(CCCn2cc(COc3cc(=O)oc4ccccc34)nn2)c2ccc(Br)cc21 | 66% | 61% | 72% | 14% | 7.14 µM | 13 µM | 11.5 µM | – | –
2 | – | COc1ccc2c(c1)C(=O)C(=O)N2CCCCCn1cc(COc2cc(=O)oc3ccccc23)nn1 | 25% | 19% | 30% | – | – | – | – | – | –
3 | – | O=C1C(=O)N(CCCCn2cc(COc3cc(=O)oc4ccccc34)nn2)c2ccc(I)cc21 | 57% | 50% | 59% | 10% | – | – | – | – | –
4 | – | O=C1C(=O)N(CCCn2cc(COc3cc(=O)oc4ccccc34)nn2)c2ccc(I)cc21 | 65% | 56% | 67% | 14% | – | – | – | – | –
5 | 1.06 µM | O=C1C(=O)N(CCn2cc(COc3cc(=O)oc4ccccc34)nn2)c2ccccc21 | 87% | 80% | 98% | 28% | 0.73 µM | 3.45 µM | 3.04 µM | Active | –
6 | – | COc1ccc2c(c1)C(=O)C(=O)N2CCn1cc(COc2cc(=O)oc3ccccc23)nn1 | 65% | 53% | 68% | 14% | – | – | – | – | –
7 | – | CC(=O)O[C@H]1C(=O)[C@@]2(C)[C@H]([C@H](OC(=O)c3ccccc3)[C@]3(O)C[C@H](OC(=O)[C@H](O)[C@@H](NC(=O)c4ccccc4)c4ccccc4)C(C)=C1C3(C)C)[C@]1(OC(C)=O)CO[C@@H]1C[C@@H]2O | – | – | – | – | – | – | – | – | Active
8 | 6.32 µM | O=C1C(=O)N(CCCn2cc(COc3cc(=O)oc4ccccc34)nn2)c2ccccc21 | 79% | 75% | 93% | 25% | 5.03 µM | 5.71 µM | 5.18 µM | – | –
9 | – | O=C1C(=O)N(CCn2cc(COc3cc(=O)oc4ccccc34)nn2)c2ccc(Cl)cc21 | 70% | 76% | 87% | 22% | 5.47 µM | 8.87 µM | 5.77 µM | – | –
10 | – | O=C1C(=O)N(CCn2cc(COc3cc(=O)oc4ccccc34)nn2)c2ccc([N+](=O)[O-])cc21 | 68% | 59% | 71% | 15% | 8.57 µM | 13 µM | 9.54 µM | – | –
11 | – | O=C1C(=O)N(CCCCn2cc(COc3cc(=O)oc4ccccc34)nn2)c2ccc([N+](=O)[O-])cc21 | 53% | 45% | 55% | 8% | – | – | – | – | –
12 | – | O=C1C(=O)N(CCCCn2cc(COc3cc(=O)oc4ccccc34)nn2)c2ccc(F)cc21 | 67% | 64% | 77% | 17% | 7.1 µM | 9.11 µM | 10.4 µM | – | –
13 | – | O=C1C(=O)N(CCCCCn2cc(COc3cc(=O)oc4ccccc34)nn2)c2ccc([N+](=O)[O-])cc21 | 29% | 23% | 37% | – | – | – | – | – | –
14 | – | O=C1C(=O)N(CCCCCn2cc(COc3cc(=O)oc4ccccc34)nn2)c2ccc(Br)cc21 | 43% | 39% | 52% | – | – | – | – | – | –
15 | – | O=C1C(=O)N(CCCCCn2cc(COc3cc(=O)oc4ccccc34)nn2)c2ccc(F)cc21 | 59% | 56% | 63% | – | – | – | – | – | –
16 | – | O=C1C(=O)N(CCCCn2cc(COc3cc(=O)oc4ccccc34)nn2)c2ccc(Cl)cc21 | 62% | 60% | 71% | 14% | 7.56 µM | 13.1 µM | 12.8 µM | – | –
17 | – | O=C1C(=O)N(CCCn2cc(COc3cc(=O)oc4ccccc34)nn2)c2ccc([N+](=O)[O-])cc21 | 60% | 52% | 60% | 12% | – | – | – | – | –
18 | 3.55 µM | O=C1C(=O)N(CCn2cc(COc3cc(=O)oc4ccccc34)nn2)c2ccc(F)cc21 | 80% | 76% | 92% | 26% | 1.99 µM | 6.67 µM | 5.41 µM | – | –
19 | – | O=C1C(=O)N(CCn2cc(COc3cc(=O)oc4ccccc34)nn2)c2ccc(Br)cc21 | 72% | 65% | 80% | 21% | 6.43 µM | 10.5 µM | 8.09 µM | – | –
20 | – | O=C1C(=O)N(CCCCCn2cc(COc3cc(=O)oc4ccccc34)nn2)c2ccccc21 | 65% | 62% | 69% | 9% | – | – | – | – | –
21 | – | COc1ccc2c(c1)C(=O)C(=O)N2CCCCn1cc(COc2cc(=O)oc3ccccc23)nn1 | 48% | 41% | 52% | – | – | – | – | – | –
22 | – | O=C1C(=O)N(CCCn2cc(COc3cc(=O)oc4ccccc34)nn2)c2ccc(Cl)cc21 | 68% | 67% | 78% | 18% | 6.99 µM | 10.7 µM | 9.66 µM | – | –
23 | – | O=C1C(=O)N(CCCn2cc(COc3cc(=O)oc4ccccc34)nn2)c2ccc(F)cc21 | 75% | 69% | 86% | 20% | 5.76 µM | 8.88 µM | 7.26 µM | – | –
24 | – | O=C1C(=O)N(CCCCCn2cc(COc3cc(=O)oc4ccccc34)nn2)c2ccc(I)cc21 | 36% | 30% | 45% | – | – | – | – | – | –
25 | – | O=C1C(=O)N(CCn2cc(COc3cc(=O)oc4ccccc34)nn2)c2ccc(I)cc21 | 70% | 62% | 74% | 17% | 7.01 µM | 12 µM | 8.99 µM | – | –
26 | – | O=C1C(=O)N(CCCCCn2cc(COc3cc(=O)oc4ccccc34)nn2)c2ccc(Cl)cc21 | 52% | 48% | 59% | – | – | – | – | – | –
27 | – | O=C1C(=O)N(CCCCn2cc(COc3cc(=O)oc4ccccc34)nn2)c2ccccc21 | 72% | 68% | 85% | 19% | 5.12 µM | 7.67 µM | 8.05 µM | – | –
28 | – | COc1ccc2c(c1)C(=O)C(=O)N2CCCn1cc(COc2cc(=O)oc3ccccc23)nn1 | 52% | 48% | 56% | 9% | – | – | – | – | –
29 | – | O=C1C(=O)N(CCCCn2cc(COc3cc(=O)oc4ccccc34)nn2)c2ccc(Br)cc21 | 59% | 56% | 63% | 13% | – | – | – | – | –
